Experimental data: PubChem BioAssay AID1963865 (Molecular Pharmacology Branch, DTP, NCI, 2024)

Tested on: KRAS PDC multicell spheroid viability
Test: Anticancer human tumor 825966-067-R-J1-PDC patient-derived colon carcinoma cell line growth inhibition [KRAS2]
Conditions: for IC50: curve of first compound; for viability, T/C: stronger effect = lower value
Summary of the method: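 Combination screen of spheroid viability in tumor-cell co-cultures with endothelial (HUVEC) and mesenchymal stem cell stroma. Each agent was tested in half-log dilutions, topping at clinical Cmax or at 10 microM without a known Cmax.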

[1] = second compound 0.1 µM, first compound 0.0316 µM
[2] = second compound 0.1 µM, first compound 0.1 µM
[3] = second compound 0.1 µM, first compound 0.316 µM
[4] = second compound 0.1 µM, first compound 1 µM
[5] = second compound 0.1 µM, first compound 3.16 µM
[6] = second compound 0.1 µM, first compound 10 µM
[7] = second compound 0.316 µM, first compound 0.0316 µM
[8] = second compound 0.316 µM, first compound 0.1 µM
[9] = second compound 0.316 µM, first compound 0.316 µM
[10] = second compound 0.316 µM, first compound 1 µM
[11] = second compound 0.316 µM, first compound 3.16 µM
[12] = second compound 0.316 µM, first compound 10 µM
[13] = second compound 1 µM, first compound 0.0316 µM
[14] = second compound 1 µM, first compound 0.1 µM
[15] = second compound 1 µM, first compound 0.316 µM
[16] = second compound 1 µM, first compound 1 µM
[17] = second compound 1 µM, first compound 3.16 µM
[18] = second compound 1 µM, first compound 10 µM
[19] = second compound 3.16 µM, first compound 0.0316 µM
[20] = second compound 3.16 µM, first compound 0.1 µM
[21] = second compound 3.16 µM, first compound 0.316 µM
[22] = second compound 3.16 µM, first compound 1 µM
[23] = second compound 3.16 µM, first compound 3.16 µM
[24] = second compound 3.16 µM, first compound 10 µM
[25] = second compound 10 µM, first compound 0.0316 µM
[26] = second compound 10 µM, first compound 0.1 µM
[27] = second compound 10 µM, first compound 0.316 µM
[28] = second compound 10 µM, first compound 1 µM
[29] = second compound 10 µM, first compound 3.16 µM
[30] = second compound 10 µM, first compound 10 µM
[31] = second compound 0.1 µM, first compound 0.000316 µM
[32] = second compound 0.1 µM, first compound 0.001 µM
[33] = second compound 0.1 µM, first compound 0.00316 µM
[34] = second compound 0.1 µM, first compound 0.01 µM
[35] = second compound 0.316 µM, first compound 0.000316 µM
[36] = second compound 0.316 µM, first compound 0.001 µM
[37] = second compound 0.316 µM, first compound 0.00316 µM
[38] = second compound 0.316 µM, first compound 0.01 µM
[39] = second compound 1 µM, first compound 0.000316 µM
[40] = second compound 1 µM, first compound 0.001 µM
[41] = second compound 1 µM, first compound 0.00316 µM
[42] = second compound 1 µM, first compound 0.01 µM
[43] = second compound 3.16 µM, first compound 0.000316 µM
[44] = second compound 3.16 µM, first compound 0.001 µM
[45] = second compound 3.16 µM, first compound 0.00316 µM
[46] = second compound 3.16 µM, first compound 0.01 µM
[47] = second compound 10 µM, first compound 0.000316 µM
[48] = second compound 10 µM, first compound 0.001 µM
[49] = second compound 10 µM, first compound 0.00316 µM
[50] = second compound 10 µM, first compound 0.01 µM
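Also: spheroids exposed to compounds for 7 days.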
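For viability, T/C in this document: 100% = DMSO vehicle control viability.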

Compound	IC50 (second compound 0.1 µM)	IC50 (second compound 0.316 µM)	IC50 (second compound 1 µM)	IC50 (second compound 3.16 µM)	IC50 (second compound 10 µM)	viability, T/C [1]	viability, T/C [2]	viability, T/C [3]	viability, T/C [4]	viability, T/C [7]	viability, T/C [8]	viability, T/C [9]	viability, T/C [10]	viability, T/C [13]	viability, T/C [14]	viability, T/C [15]	viability, T/C [19]	viability, T/C [20]	viability, T/C [25]	viability, T/C [26]	further results
CC(C)NCC(C(=O)N1CCN(c2ncnc3c2C(C)CC3O)CC1)c1ccc(Cl)cc1 (stereo not given) + COc1cc2nc(C)nc(NC(C)c3cc(N)cc(C(F)(F)F)c3)c2cc1OC1CCOC1	2500 nM	2450 nM	1740 nM	1880 nM	< 31.6 nM	122%	113%	148%	97.1%	103%	129%	122%	130%	114%	128%	151%	111%	125%	22.4%	5.84%	viability, T/C [5]: 39.4%; viability, T/C [6]: 11.2%; viability, T/C [11]: 29.7%; viability, T/C [12]: 8.59%; viability, T/C [16]: 75.7%; viability, T/C [17]: 37.4%; viability, T/C [18]: 7.58%; viability, T/C [21]: 104%; viability, T/C [22]: 97.7%; viability, T/C [23]: 10.9%; viability, T/C [24]: 5.94%; viability, T/C [27]: 3.69%; viability, T/C [28]: 1.56%; viability, T/C [29]: 2.14%; viability, T/C [30]: 3.53%
CC(C)n1nc(-c2ccc3oc(N)nc3c2)c2c(N)ncnc21 + COc1cc2nc(C)nc(NC(C)c3cc(N)cc(C(F)(F)F)c3)c2cc1OC1CCOC1	> 100 nM	> 100 nM	> 100 nM	> 100 nM	< 0.316 nM	79%	99.4%	–	–	84%	81.7%	–	–	82.8%	75.2%	–	82.2%	81.5%	11.2%	3.11%	viability, T/C [31]: 59.7%; viability, T/C [32]: 93.1%; viability, T/C [33]: 125%; viability, T/C [34]: 154%; viability, T/C [35]: 97.1%; viability, T/C [36]: 99%; viability, T/C [37]: 116%; viability, T/C [38]: 137%; viability, T/C [39]: 100%; viability, T/C [40]: 103%; viability, T/C [41]: 123%; viability, T/C [42]: 131%; viability, T/C [43]: 115%; viability, T/C [44]: 109%; viability, T/C [45]: 121%; viability, T/C [46]: 63.7%; viability, T/C [47]: 6.15%; viability, T/C [48]: 2.53%; viability, T/C [49]: 15.6%; viability, T/C [50]: 12.3%
CC1(C)CCC(CN2CCN(c3ccc(C(=O)NS(=O)(=O)c4ccc(NCC5CCOCC5)c([N+](=O)[O-])c4)c(Oc4cnc5[nH]ccc5c4)c3)CC2)=C(c2ccc(Cl)cc2)C1 + COc1cc2nc(C)nc(NC(C)c3cc(N)cc(C(F)(F)F)c3)c2cc1OC1CCOC1	2080 nM	1940 nM	1990 nM	2210 nM	31.6 nM	94.7%	86.3%	107%	111%	99.2%	94.8%	90.6%	91.5%	118%	96%	114%	139%	119%	14.3%	48.2%	viability, T/C [5]: 21.4%; viability, T/C [6]: 5.44%; viability, T/C [11]: 19.7%; viability, T/C [12]: 6.45%; viability, T/C [16]: 106%; viability, T/C [17]: 12.3%; viability, T/C [18]: 3.36%; viability, T/C [21]: 130%; viability, T/C [22]: 180%; viability, T/C [23]: 8.21%; viability, T/C [24]: 3.86%; viability, T/C [27]: 68.2%; viability, T/C [28]: 59.6%; viability, T/C [29]: 1.84%; viability, T/C [30]: 0.72%
CCN1CCN(Cc2ccc(Nc3ncc(F)c(-c4cc(F)c5nc(C)n(C(C)C)c5c4)n3)nc2)CC1 + COc1cc2nc(C)nc(NC(C)c3cc(N)cc(C(F)(F)F)c3)c2cc1OC1CCOC1	> 1000 nM	> 1000 nM	> 1000 nM	> 1000 nM	31.9 nM	121%	170%	129%	183%	111%	132%	172%	161%	104%	152%	179%	161%	158%	38.3%	31.5%	viability, T/C [33]: 99.6%; viability, T/C [34]: 111%; viability, T/C [37]: 99.3%; viability, T/C [38]: 109%; viability, T/C [41]: 103%; viability, T/C [42]: 109%; viability, T/C [16]: 92.7%; viability, T/C [45]: 118%; viability, T/C [46]: 142%; viability, T/C [21]: 171%; viability, T/C [22]: 50.1%; viability, T/C [49]: 82.9%; viability, T/C [50]: 87.8%; viability, T/C [27]: 5.53%; viability, T/C [28]: 1.46%
CCNC(=O)CC1N=C(c2ccc(Cl)cc2)c2cc(OC)ccc2-n2c(C)nnc21 (stereo not given) + COc1cc2nc(C)nc(NC(C)c3cc(N)cc(C(F)(F)F)c3)c2cc1OC1CCOC1	> 10000 nM	> 10000 nM	> 10000 nM	2460 nM	55.6 nM	97.2%	119%	104%	80.3%	97.6%	111%	98.2%	75.2%	101%	109%	118%	131%	97.6%	77.8%	19%	viability, T/C [5]: 73.4%; viability, T/C [6]: 69.1%; viability, T/C [11]: 59.9%; viability, T/C [12]: 69.1%; viability, T/C [16]: 77.1%; viability, T/C [17]: 98.8%; viability, T/C [18]: 70.8%; viability, T/C [21]: 114%; viability, T/C [22]: 71.7%; viability, T/C [23]: 41%; viability, T/C [24]: 47%; viability, T/C [27]: 17.4%; viability, T/C [28]: 8.42%; viability, T/C [29]: 13.1%; viability, T/C [30]: 1.45%
Cn1ncnc1[C@H]1c2n[nH]c(=O)c3cc(F)cc(c23)N[C@@H]1c1ccc(F)cc1 + COc1cc2nc(C)nc(NC(C)c3cc(N)cc(C(F)(F)F)c3)c2cc1OC1CCOC1	> 100 nM	> 100 nM	> 100 nM	> 100 nM	< 0.316 nM	83.9%	70.9%	–	–	65.3%	64.4%	–	–	84.2%	92.1%	–	105%	89.3%	11.8%	7.86%	viability, T/C [31]: 92.2%; viability, T/C [32]: 89.3%; viability, T/C [33]: 90.6%; viability, T/C [34]: 76.7%; viability, T/C [35]: 86.3%; viability, T/C [36]: 94.4%; viability, T/C [37]: 82.4%; viability, T/C [38]: 101%; viability, T/C [39]: 86.3%; viability, T/C [40]: 99.4%; viability, T/C [41]: 107%; viability, T/C [42]: 79.2%; viability, T/C [43]: 116%; viability, T/C [44]: 103%; viability, T/C [45]: 114%; viability, T/C [46]: 94.7%; viability, T/C [47]: 11.3%; viability, T/C [48]: 10.4%; viability, T/C [49]: 17.1%; viability, T/C [50]: 21.1%
